# Measurements from publication PMC6236447 (Molecules : A Journal of Synthetic Chemistry and Natural …, 2001).
# pIC50: −log10 of the molar value. Where a SMILES comes first, the peptide text is derived from it. [ ]: non-standard residue; d: D form. Ahx = NCCCCCC(=O)O
# Key:
# hY5-receptor = biological target: T1, hY5-receptor (Homo sapiens, UniProt Q15761); experiment: Radioligand displacement binding on transfected BHK membranes
# T1 sequence (Q15761 1-445): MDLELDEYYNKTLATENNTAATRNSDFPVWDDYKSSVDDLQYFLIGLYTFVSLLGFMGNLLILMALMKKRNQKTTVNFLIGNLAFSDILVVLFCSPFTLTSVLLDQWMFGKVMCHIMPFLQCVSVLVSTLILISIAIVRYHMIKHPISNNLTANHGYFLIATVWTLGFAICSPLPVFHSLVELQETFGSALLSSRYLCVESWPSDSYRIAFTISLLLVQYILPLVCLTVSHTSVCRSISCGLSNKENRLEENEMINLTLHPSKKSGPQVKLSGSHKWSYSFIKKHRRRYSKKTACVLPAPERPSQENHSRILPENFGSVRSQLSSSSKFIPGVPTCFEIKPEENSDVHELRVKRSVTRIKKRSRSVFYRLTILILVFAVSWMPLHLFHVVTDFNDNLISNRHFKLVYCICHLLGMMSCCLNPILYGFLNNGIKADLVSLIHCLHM
# hY2-receptor = biological target: T2, hY2-receptor (Homo sapiens, UniProt P49146); experiment: Radioligand displacement binding on SMS-KAN membranes
# T2 sequence (P49146 1-381): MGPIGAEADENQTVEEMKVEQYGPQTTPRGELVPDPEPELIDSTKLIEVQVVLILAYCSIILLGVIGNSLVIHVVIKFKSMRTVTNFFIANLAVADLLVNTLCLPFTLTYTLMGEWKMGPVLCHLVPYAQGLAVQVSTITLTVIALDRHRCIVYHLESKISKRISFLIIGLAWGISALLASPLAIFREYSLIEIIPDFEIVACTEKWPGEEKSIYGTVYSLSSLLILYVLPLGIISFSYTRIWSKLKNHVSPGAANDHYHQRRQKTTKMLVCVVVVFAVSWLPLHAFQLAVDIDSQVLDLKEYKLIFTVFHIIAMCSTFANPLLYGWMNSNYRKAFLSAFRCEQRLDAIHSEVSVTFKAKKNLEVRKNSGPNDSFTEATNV
# hY1-receptor = biological target: T3, hY1-receptor (Homo sapiens, UniProt P25929); experiment: Radioligand displacement binding on SK-N-MC membranes
# T3 sequence (P25929 1-384): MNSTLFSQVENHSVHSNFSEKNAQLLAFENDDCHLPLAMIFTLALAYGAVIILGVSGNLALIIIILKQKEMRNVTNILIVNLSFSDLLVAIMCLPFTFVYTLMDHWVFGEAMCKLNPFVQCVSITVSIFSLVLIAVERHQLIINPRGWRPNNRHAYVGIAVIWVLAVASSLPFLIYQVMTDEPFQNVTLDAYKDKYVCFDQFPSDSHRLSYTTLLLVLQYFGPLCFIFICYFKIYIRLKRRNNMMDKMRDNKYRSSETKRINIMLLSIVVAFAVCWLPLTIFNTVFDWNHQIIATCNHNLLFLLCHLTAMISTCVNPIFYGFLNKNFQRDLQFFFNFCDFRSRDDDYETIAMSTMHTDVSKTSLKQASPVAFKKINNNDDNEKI
# hY4-receptor = hY4-receptor (Homo sapiens, UniProt P50391); experiment: Radioligand displacement binding on transfected BHK membranes
# Sequence of hY4-receptor (P50391 whole entry): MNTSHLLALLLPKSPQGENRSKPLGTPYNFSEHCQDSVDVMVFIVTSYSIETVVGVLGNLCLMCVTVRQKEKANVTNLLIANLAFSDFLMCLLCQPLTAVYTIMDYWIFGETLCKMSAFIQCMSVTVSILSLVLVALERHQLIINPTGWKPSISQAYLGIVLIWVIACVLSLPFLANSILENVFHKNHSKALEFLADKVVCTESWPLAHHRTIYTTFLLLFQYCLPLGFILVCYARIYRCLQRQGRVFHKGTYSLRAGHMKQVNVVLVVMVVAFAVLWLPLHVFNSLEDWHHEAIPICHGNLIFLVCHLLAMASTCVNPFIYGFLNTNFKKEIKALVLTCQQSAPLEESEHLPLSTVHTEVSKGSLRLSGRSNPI
Structure (SMILES),pIC50 (hY5-receptor),pIC50 (hY2-receptor),pIC50 (hY1-receptor),pIC50 (hY4-receptor)
CC[C@H](C)[C@H](NC(=O)[C@H](Cc1ccc(O)cc1)NC(=O)[C@H](CCCNC(=N)N)NC(=O)[C@H](CCCNC(=N)N)NC(=O)CCCCCNC(=O)[C@H](CCC(=O)O)NC(=O)[C@H](CC(C)C)NC(=O)[C@@H]1CCCN1C(=O)[C@H](C)N)C(=O)N[C@@H](CC(N)=O)C(=O)N[C@@H](CCSC)C(=O)N[C@@H](CC(C)C)C(=O)N[C@H](C(=O)N[C@@H](CCCNC(=N)N)C(=O)N1CCC[C@H]1C(=O)N[C@@H](CCCNC(=N)N)C(=O)N[C@@H](Cc1ccc(O)cc1)C(N)=O)[C@@H](C)O [[Ahx^5-24]-hPP] (H-APLE[Ahx]RRYINMLTRPRY-NH2),< 6.00,< 6.00,< 6.30,6.84
CC[C@H](C)[C@H](NC(=O)[C@H](Cc1ccc(O)cc1)NC(=O)[C@H](Cc1cnc[nH]1)NC(=O)[C@H](CCCNC(=N)N)NC(=O)CCCCCNC(=O)[C@H](CCCCN)NC(=O)[C@H](CO)NC(=O)[C@@H]1CCCN1C(=O)[C@@H](N)Cc1ccc(O)cc1)C(=O)N[C@@H](CC(N)=O)C(=O)N[C@@H](CC(C)C)C(=O)N[C@H](C(=O)N[C@H](C(=O)N[C@@H](CCCNC(=N)N)C(=O)N[C@@H](CCC(N)=O)C(=O)N[C@@H](CCCNC(=N)N)C(=O)N[C@@H](Cc1ccc(O)cc1)C(N)=O)[C@@H](C)O)[C@@H](C)CC [[Ahx^5-24]-NPY] (H-YPSK[Ahx]RHYINLITRQRY-NH2),6.10,8.85,< 6.00,6.22
"CC[C@H](C)[C@H](NC(=O)[C@H](Cc1ccc(O)cc1)NC(=O)[C@H](Cc1c[nH]cn1)NC(=O)[C@H](CCCNC(=N)N)NC(=O)CCCCCNC(=O)[C@H](CCCCN)NC(=O)[C@H](CO)NC(=O)[C@@H]1CCCN1C(=O)[C@@H](N)Cc1ccc(O)cc1)C(=O)N[C@@H](CC(N)=O)C(=O)N[C@@H](CC(C)C)C(=O)N[C@H](C(=O)N[C@H](C(=O)N[C@@H](CCCNC(=N)N)C(=O)N1CCC[C@H]1C(=O)N[C@@H](CCCNC(=N)N)C(=O)N[C@@H](Cc1ccc(O)cc1)C(N)=O)[C@@H](C)O)[C@@H](C)CC [[Ahx^5-24, ^P34]-NPY] (H-YPSK[Ahx]RHYINLITRPRY-NH2)",< 5.00,,,6.29
CC[C@H](C)[C@H](NC(=O)[C@H](Cc1ccc(O)cc1)NC(=O)[C@H](Cc1c[nH]cn1)NC(=O)[C@H](CCCNC(=N)N)NC(=O)[C@H](CC(C)C)NC(=O)[C@H](C)NC(=O)[C@H](CO)NC(=O)[C@H](Cc1ccc(O)cc1)NC(=O)CCCCCNC(=O)[C@H](CC(N)=O)NC(=O)[C@H](CC(=O)O)NC(=O)[C@@H]1CCCN1C(=O)[C@H](CCCCN)NC(=O)[C@H](CO)NC(=O)[C@@H]1CCCN1C(=O)[C@@H](N)Cc1ccc(O)cc1)C(=O)N[C@@H](CC(N)=O)C(=O)N[C@@H](CC(C)C)C(=O)N[C@H](C(=O)N[C@H](C(=O)N[C@@H](CCCNC(=N)N)C(=O)N[C@@H](CCC(N)=O)C(=O)N[C@@H](CCCNC(=N)N)C(=O)N[C@@H](Cc1ccc(O)cc1)C(N)=O)[C@@H](C)O)[C@@H](C)CC [[Ahx^8-20]-NPY] (H-YPSKPDN[Ahx]YSALRHYINLITRQRY-NH2),7.51,,,7.17
CC[C@H](C)[C@H](NC(=O)[C@H](Cc1ccc(O)cc1)NC(=O)[C@H](CCCNC(=N)N)NC(=O)[C@H](CCCNC(=N)N)NC(=O)[C@H](CC(C)C)NC(=O)[C@H](CC(=O)O)NC(=O)[C@H](C)NC(=O)[C@H](C)NC(=O)CCCCCNC(=O)[C@H](CCC(=O)O)NC(=O)[C@H](CC(C)C)NC(=O)[C@@H]1CCCN1C(=O)[C@H](C)N)C(=O)N[C@@H](CC(N)=O)C(=O)N[C@@H](CCSC)C(=O)N[C@@H](CC(C)C)C(=O)N[C@H](C(=O)N[C@@H](CCCNC(=N)N)C(=O)N1CCC[C@H]1C(=O)N[C@@H](CCCNC(=N)N)C(=O)N[C@@H](Cc1ccc(O)cc1)C(N)=O)[C@@H](C)O [[Ahx^5-20]-hPP] (H-APLE[Ahx]AADLRRYINMLTRPRY-NH2),< 5.15,< 6.00,< 5.82,6.67
